# Test results from patent US10898873B2, “Lecithin compositions and methods of making and using such lecithin compositions” (Archer Daniels Midland Company, priority 2015, dated 2021).
# Experiment: Solubility of sorbitol in ethanol
# Format: physicochemical
# Text: Sugar alcohols can become heavily supersaturated upon cooling. When water is slowly replaced with ethanol, there can be a significant change in the maximum concentration at which the solute is completely soluble. In this example, blends of a 70% sorbitol solution and ethanol were made.
compound,measurement,setting,value
OC[C@@H](O)[C@@H](O)[C@H](O)[C@@H](O)CO [sorbitol],clarity of sorbitol/ethanol blend,"70% sorbitol solution and ethanol, ratio 70:30",completely clear
same,clarity of sorbitol/ethanol blend,blends with greater than 30% ethanol,crystallization of the sorbitol
